Measurements taken from US5550249A, “Water soluble derivatives of biotin and related therapeutical compositions” (Lifegroup, S.p.A., priority 1991, dated 1996).
Like-named read-outs stand apart in the source and are kept apart here.

Columns and labels:
[1] = Partition in water/octanol (14C-biotin, scintillation counting); assay type: physicochemical
Description: ^14 C-biotin (53000 dpm) was used admixed with cool biotin (0.25 mmol) in 5 ml of twice distilled water, in the presence and in the absence of ethanolamine (3 μl), then adding 5 ml of octanol and stirring (1 minute by means of a stirrer VORTEX). After separation of the phases the radioactivity was measured by scintillation (Beckman counter) in 1 ml of sample. The amount of ^14 C-biotin transferred into the octanolic phase was 14443 dpm in the absence of ethanolamine and 82 dpm in the presence of ethanolamine.
This confirms the increase in solubility in the aqueous phase, which is a consequence of the salification.

Water solubility = assay type: physicochemical; conditions: salts of biotin with an aminoalcohol
[2] = Solubility in cold ethanol; assay type: physicochemical
[3] = cited from earlier work
vitamin H deficiency = conditions: cited from earlier work
[4] = test system: carboxylase enzymes deficiency; conditions: cited from earlier work
[5] = test system: seborrheal dermatitis of the newborn; conditions: cited from earlier work
diabetes = conditions: cited from earlier work
[6] = test system: peripheral neuropathies having diabetic origin; conditions: human beings; cited from earlier work
glucokinase = conditions: recent studies; cited from earlier work
insulin = conditions: recent studies; cited from earlier work
[7] = water/octanol, average of 3 tests

O=C(O)CCCC[C@@H]1SC[C@@H]2NC(=O)N[C@@H]21 [Ethanolamine biotinate, ethanolamine biotinate]
H2O (dpm) ([1]; pH 4, average of 3 tests): 32148 dpm
H2O/octanol ([1]; pH 4, average of 3 tests): 2.6
octanol (dpm) ([1]; pH 4, average of 3 tests): 12300 dpm
H2O (dpm) [1, 7]: 36664 dpm
H2O/octanol [1, 7]: 447.1
octanol (dpm) [1, 7]: 82 dpm
water solubility (in words) (Water solubility): completely water soluble
solubility in cold ethanol (in words) [2]: rather soluble in cold ethanol

O=C(O)CCCC[C@@H]1SC[C@@H]2NC(=O)N[C@@H]21 [Biotin, biotin]
H2O (dpm) ([1]; pH 4, average of 3 tests): 40769 dpm
H2O/octanol ([1]; pH 4, average of 3 tests): 2.9
octanol (dpm) ([1]; pH 4, average of 3 tests): 13991 dpm
H2O (dpm) [1, 7]: 40940 dpm
H2O/octanol [1, 7]: 2.8
octanol (dpm) [1, 7]: 14443 dpm
water solubility ([3]; biotin as such): 22 mg/100 ml
water solubility (in words) ([3]; prior art): poor water solubility
egg-white injury (vitamin H deficiency; Sidenstricker and co-workers, 1942): can be defeated
secondary effects of vitamin deficiency (vitamin H deficiency; following administration of biotin for a certain time): disappeared
effect in diseases coming from a deficiency in multiple carboxylase enzymes ([4]; multiple carboxylase enzymes): effective
effect in diseases caused by single carboxylase enzymes insufficiency ([4]; single carboxylase enzymes (propionyl-CoA, pyruvate, β-methyl-crotonyl carboxylase)): uneffective
effect in seborrheal dermatitis in the newborn [5]: particularly effective
blood glucose level (diabetes; insulin-dependent diabetics): lowers the blood glucose level
glucose tolerance (diabetes; insulin-independent diabetes): increase glucose tolerance
post-prandial glucose level (diabetes; insulin-independent diabetes): reduce the post-prandial glucose level
resistance to insulin (diabetes; insulin-independent diabetes): lower resistance to insulin
treatment and prevention of diabetic peripheral neuropathies [6]: advantageously utilized
activation of glucokinase (glucokinase): able to activate
activation of insulin (insulin): able to activate

O=C(O)CCCC[C@@H]1SC[C@@H]2NC(=O)N[C@@H]21 [^14 C-biotin]
change of amount of 14C-biotin transferred into the octanolic phase ([1]; aqueous phase brought to pH 4, in the absence of ethanolamine): always remains the same
increase of amount of 14C-biotin transferred into the octanolic phase ([1]; aqueous phase brought to pH 4, in the presence of ethanolamine): 170 times
amount of 14C-biotin transferred into the octanolic phase ([1]; in the absence of ethanolamine): 14443 dpm
amount of 14C-biotin transferred into the octanolic phase ([1]; in the presence of ethanolamine (3 μl)): 82 dpm
